Experimental data as given in patent US12644133B2, “Methods and compositions to increase somatic cell nuclear transfer (SCNT) efficiency by removing histone H3-lysine trimethylation” (The Children's Medical Center Corporation, priority 2014, dated 2026).

Key:
[1] = system: reprogramming resistant regions (RRRs); test: RNA-seq analysis of 2-cell SCNT embryos; format: cell-based, mouse
Procedure: The embryos were directly lysed and used for cDNA synthesis using SMARTer Ultra Low Input RNA cDNA preparation kit (Clontech). After amplification, the cDNA samples were fragmented using Covaris sonicator (Covaris). Sequencing libraries were made with the fragmented DNA using NEBNext Ultra DNA Library Prep Kit for Illumina according to manufacturer's instruction (New England Biolabs). Single end 50 bp sequencing was performed on a HiSeq 2500 sequencer (Illumina). Sequencing reads were mapped to the mouse genome (mm9) with NovoalignV3.02.00. All programs were performed with default settings (unless otherwise specified). Uniquely mapped reads (about 70% of total reads) were subsequently assembled into transcripts guided by the reference annotation (UCSC gene models) with Cufflinks v2.0.2. Expression level of each gene was quantified with normalized FPKM (fragments per kilobase of exon per million mapped fragments). […] Statistical analyses were implemented with R (world wide web at www.r-project.org/). Independent 2-group Wilcoxon rank sum test were used to compare distributions using the wilcox.test function in R. Pearson's r coefficient was calculated using the cor function with default parameters. The hierarchical clustering analysis of the global gene expression pattern in different samples was carried out using hearmap.2 function (gplots package) in R.
A sliding window (size 100 kb, step size 20 kb) was used to assess the genome-wide expression level of 1-cell and 2-cell embryos. For each window, the expression level was quantified with normalized RPM (reads per millions of uniquely mapped reads). […] These activated regions were classed into three groups based on their expression differences in SCNT and IVF 2-cell embryos.

[2] = system: H3K9me3; test: Immunostaining of H3K9me3 in SCNT embryos; format: cell-based, mouse; conditions: mRNA injected at 5 hpa; cumulus donor cells
Procedure: Somatic cell nuclear transfer was carried out as described previously (Matoba et al., 2011). Briefly, recipient MII oocytes were collected from superovulated adult BDF1 females by brief treatment with 300 U/ml bovine testicular hyaluronidase (Calbiochem). Isolated MII oocytes were enucleated in Hepes-buffered KSOM medium containing 7.5 μg/ml of cytochalasin B (Calbiochem #250233). The nuclei of donor cumulus cells or Sertoli cells were injected into the enucleated oocytes using a Piezo-driven micromanipulator (Primetech #PMM-150FU). MEF cells were fused with enucleated oocytes by inactivated Sendai virus envelope (HVJ-E; Ishihara Sangyo, Japan). After 1 h incubation in KSOM, reconstructed SCNT oocytes were activated by incubation in Ca-free KSOM containing 5 μg/ml cytochalasin B for 1 h and further cultured in KSOM with cytochalasin B for 4 h. Activated SCNT embryos were washed 5 h after the onset of SrCl2 treatment (hours post activation, hpa) and cultured in KSOM in a humidified atmosphere of 5% CO2 at 37.8° C. In some experiments, SCNT embryos were injected with ˜10 pl of water (control), 1800 ng/μl wild-type or mutant (H189A) Kdm4d mRNA at 5-6 hpa by using a Piezo-driven micromanipulator (Primetech). […] Preimplantation developmental rates were statistically analyzed by Student's T-test. […]

Question: For “Kdm4d WT mRNA: in vitro transcribed full length mouse Kdm4d mRNA, encoding an H3K9me3-specific histone demethylase”, which “repression of major satellite repeats in 2-cell SCNT embryos (in words)” value [1] is on record?
Answer: completely restored

Question: And the “% of the 222 RRRs activated (FC >2) compared to control SCNT embryos” value ([1]; 2-cell SCNT embryos)?
Answer: 83%

Question: What about the “SCNT-induced repression of class III retrotransposon elements such as MERVL (in words)” value ([1]; 2-cell SCNT embryos) of the same substance?
Answer: partly relieved

Question: What about the “number of the 222 RRRs activated (FC >2)” value ([1]; 2-cell SCNT embryos) of the same substance?
Answer: 184

Question: And the “total number of differentially expressed genes (FC >3) between SCNT and IVF 2-cell embryos” value ([1]; 1212 without injection)?
Answer: 475

Question: And the “reduction of H3K9me3 levels in SCNT embryos (in words)” value [2]?
Answer: greatly reduced H3K9me3 levels
